Measured values: US6794396B2, “Substituted pyridines useful for inhibiting cholesteryl ester transfer protein activity” (Pharmacia Corporation, priority 1998, dated 2004)
“And” between values parts separate entries of the source, which are not always exact repeats. Equal values may be shown once.

How the values were obtained:
[1] = molecular target: T1, CETP in human plasma or serum pool (Homo sapiens, UniProt P11597); assay: Whole serum CETP activity assay (tritiated cholesterol ester); assay type: biochemical; conditions: 4 hours at 37° C.
T1 construct: from tissue; host or cells: pooled human EDTA plasma or serum from healthy volunteers
T1 sequence (P11597 18-493): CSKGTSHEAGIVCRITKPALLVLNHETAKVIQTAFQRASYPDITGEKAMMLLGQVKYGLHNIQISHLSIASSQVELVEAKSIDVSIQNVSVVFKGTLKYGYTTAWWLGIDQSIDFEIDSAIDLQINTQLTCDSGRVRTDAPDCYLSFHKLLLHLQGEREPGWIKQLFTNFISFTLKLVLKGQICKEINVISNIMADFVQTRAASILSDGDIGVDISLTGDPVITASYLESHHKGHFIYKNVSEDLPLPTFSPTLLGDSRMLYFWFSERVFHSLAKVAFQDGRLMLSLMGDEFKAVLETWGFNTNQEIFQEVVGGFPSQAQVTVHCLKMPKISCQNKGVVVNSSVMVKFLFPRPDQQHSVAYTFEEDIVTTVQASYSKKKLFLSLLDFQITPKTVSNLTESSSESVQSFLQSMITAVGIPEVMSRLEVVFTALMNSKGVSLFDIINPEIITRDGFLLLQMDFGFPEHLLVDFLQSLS
Protocol: Blood was obtained from healthy volunteers recruited from the personnel of Monsanto Company, Saint Louis, Mo. Blood was either collected in tubes containing EDTA (EDTA plasma pool) or in tubes without EDTA (spun to form the serum pool). The EDTA human plasma pool or human serum pool, previously stored at −20° C., was thawed at room temperature, and centrifuged for 5 minutes to remove any particulate matter. Tritiated HDL, radiolabeled in the cholesteryl ester moiety ([^3H]CE-HDL) as described by Morton and Zilversmit (J. Biol. Chem., 256, 11992-95 (1981) which is incorporated by reference herein), was added to the plasma or serum to a final concentration of (25 μg/ml cholesterol).
Inhibitor compounds were added to the plasma or serum as follows: Equal volumes of the plasma or serum containing the [^3H]CE-HDL (396 μl) were pipetted into micro tubes (Titertube®, Bio-Rad Laboratories, Hercules, Calif.). Compounds, usually dissolved as 20-50 mM stock solutions in DMSO, were serially diluted in DMSO (or an alternative solvent in some cases, such as dimethylformamide or ethanol). Four μl of each of the serial dilutions of inhibitor compounds or DMSO alone were then added to each of the plasma or serum tubes. The tubes were immediately mixed. Triplicate aliquots (100 μl) from each plasma or serum tube were then transferred to wells of 96-well round-bottomed polystyrene microtiter plates (Corning, Corning, N.Y.). Plates were sealed with plastic film and incubated at 37° C. for 4 hours.
Test wells contained plasma or serum with dilutions of inhibitor compounds. Control wells contained plasma or serum with DMSO alone. Blank wells contained plasma or serum with DMSO alone that were left in the micro tubes at 4° C. for the 4 hour incubation and were added to the microtiter wells at the end of the incubation period. VLDL and LDL were precipitated by the addition of 10 μl of precipitating reagent (1% (w/v) Dextran Sulfate (Dextralip50)/0.5M magnesium chloride, pH 7.4) to all wells. The wells were mixed on a plate mixer and then incubated at ambient temperature for 10 min. The plates were then centrifuged at 1000×g for 30 mins at 10° C. The supernatants (50 μl) from each well were then transferred to Picoplate™ 96 plate wells (Packard, Meriden, Conn.) containing […] Microscint™-40 (Packard, Meriden, Conn.). The plates were heat-sealed (TopSeal™-P, Packard, Meriden, Conn.) according to the manufacturers directions and mixed for 30 min.
Radioactivity was measured on a microplate scintillation counter (TopCount, Packard, Meriden, Conn.). […] The maximum percent transfer (in the control wells) was determined using the following equation: [formula]
The percent of control transfer determined in the wells containing inhibitor compounds was determined as follows: [formula]
IC50 values were then calculated from plots of % control versus concentration of inhibitor compound.

CETP = assay: Inhibition of CETP activity in vivo: [3H]CE transfer from HDL to VLDL and LDL after intravenous injection; parameters: species or system golden Syrian hamster; conditions: hamsters, injection into jugular vein; for % Inhibition of CETP activity: versus control animals
Excerpt: Inhibition of CETP by a test compound can be determined by administering the compound to an animal by intravenous injection, determining the rate of transfer of tritium-labeled cholesteryl ester (^3H]CE) from HDL to VLDL and LDL particles, and comparing the rate of transfer with the rate of transfer observed in control animals.
Male golden Syrian hamsters were maintained on a diet of chow containing 0.24% cholesterol for at least two weeks prior to the study. Immediately before the experiment, animals were anesthetized with pentobarbital. Anesthesia was maintained throughout the experiment. Indwelling catheters were inserted into the jugular vein and carotid artery. Test compound, Dimethyl 5,5′-dithiobis[2-difluoromethyl)-4-(2-methylpropyl)-6-(trifluoromethyl)-3-pyridinecarboxylate] (Compound 181), was dissolved as a 80 mM stock solution in vehicle (2% ethanol: 98% PEG 400, Sigma Chemical Company, St. Louis, Mo., USA). At the start of the experiment all animals received 0.2 ml of a solution containing [^3H]-CE-HDL into the jugular vein. [^3H[-CE-HDL is a preparation of human HDL containing tritium-labeled cholesteryl ester, and was prepared according to the method of Glenn et al. (“Quantification of Cholesteryl Ester Transfer Protein (CETP): A) CETP Activity and B) Immunochemical Assay of CETP Protein,” Meth. Enzymol., Glenn and Melton (Meth. Enzymol., 263, 339-351 (1996) which is incorporated herein by reference).
After 2 minutes, the animals received 0.1 ml of the test solution injected into the jugular vein. Control animals received 0.1 ml of the vehicle solution without test compound. After 5 minutes, the first blood samples (0.5 ml) were taken from the carotid artery and collected in standard microtainer tubes containing ethylenediamine tetraacetic acid. Saline (0.5 ml) was injected to flush the catheter and replace blood volume. Subsequent blood samples were taken at two hours and four hours by the same method. Blood samples were mixed well and kept on ice until the completion of the experiment.
Plasma was obtained by centrifugation of the blood samples at 4° C. The plasma (50 μl) was then treated with 5 μl of precipitating reagent (dextran sulfate, 10 g/l; 0.5M magnesium chloride to remove VLDL/LDL. After centrifugation, the resulting supernatant (25 μl) containing the HDL was analyzed for radioactivity using a liquid scintillation counter. The percentage [^3H] CE transferred from HDL to LDL and VLDL (% transfer) was calculated based on the total radioactivity in equivalent serum samples before precipitation. Typically, the amount of transfer from HDL to LDL and VLDL in control animals was 30 to 35% after four hours. The polyethylene glycol vehicle was determined to have no effect on CETP activity in this model.
(Compound 181), and five animals that received vehicle. At two hours, mean values of 13% [^3H]-Ce transfer from HDL to LDL and VLDL were obtained for the control animals, but only 4.7% transfer for the animals receiving Compound 181. […] Student t-tests were performed to determine if the means for control and animals treated with Compound 181 were statistically different.

For COC(=O)c1c(C(F)F)nc(C(F)(F)F)c(SSc2c(C(F)(F)F)nc(C(F)F)c(C(=O)OC)c2CC(C)C)c1CC(C)C [Compound 181, Dimethyl 5,5′-Dithiobis[2-(difluoromethyl)-4-(2-methylpropyl)-6-(trifluoromethyl)-3-pyridinecarboxylate]], the “IC50 whole serum CETP activity” value [1] was 16 µM, the “% Transfer of [3H]-CE from HDL to LDL and VLDL” value (CETP; four hours) was 10.6% and the “% Inhibition of CETP activity” value (CETP; four hours) was 50.8%. For the same molecule, the “% Transfer of [3H]-CE from HDL to LDL and VLDL” value (CETP; two hours) was 4.7% and the “% Inhibition of CETP activity” value (CETP; two hours) was 64% and 63.6%.
